The target in data set [1] is T1, human α2AAR (Homo sapiens (Human), UniProt P08913). Description: Gαi G protein activation, BRET biosensor assay in HEK293T cells. The following applies: for Emax: HEK-293T; for EC50: Gi EC50 ± SE, BRET biosensor, human α2AAR (Table 3). Background: Bioluminescence resonance energy transfer reports proximity on the nanometre scale.
Data set [2] deals with T1, human α2AAR. Put plainly: Radioligand competition binding to human α2AAR (HEK293T membranes, [3H]RX82,1002). The following applies: human α2AAR; mean ± SEM (Table 3); read-out: Ki. On the technique in general: In a radioligand displacement assay an active substance lowers the binding of a labelled ligand.
For data set [3], the target named is T1, human α2AAR. Description: DiscoverX HitHunter cAMP G-protein activation assay. The following applies: read-out: Gi/o Emax.
Description: DiscoverX HitHunter cAMP G-protein activation assay. […] Freezer stock cAMP Hunter cell lines were expanded, then seeded in a total volume of 20 uL into white walled, 384-well microplates and incubated at 37° C. prior to testing. For agonist determination, cells were incubated with compound samples in the presence of EC80 forskolin to induce response. Media was aspirated from cells and replaced with 15 uL 2:1 HBSS/10 mM Hepes: cAMP XS+Ab reagent. Intermediate dilution of sample stocks was performed to generate 4× sample in assay buffer containing 4× EC80 forskolin. […] Finally assay vehicle concentration was 1%. After sample incubation assay signal was generated through incubation with 20 uL cAMP XS+ED/CL lysis cocktail for one hour followed by incubation with 20 uL cAMP XS+EA reagent for three hours at room temperature. Microplates were read following signal generation with a PerkinElmer Envision Instrument for chemiluminescent signal detection. Compound activity was analyzed using CBIS data analysis suite. For Gi agonist mode, percentage activity is calculated using the following formula: % Activity=100%×(1−(mean RLU of test sample−mean RLU of MAX control)/(mean RLU of vehicle control−mean RLU of MAX control)). […] Each measurement was done in duplicate.
DiscoverX HitHunter cAMP G-protein activation assay. […] Freezer stock cAMP Hunter cell lines were expanded, then seeded in a total volume of 20 μL into white walled, 384-well microplates and incubated at 37° C. prior to testing. For agonist determination, cells were incubated with compound samples in the presence of EC50 forskolin to induce response. Media was aspirated from cells and replaced with 15 μL 2:1 HBSS/10 mM Hepes: cAMP XS+Ab reagent. Intermediate dilution of sample stocks was performed to generate 4× sample in assay buffer containing 4× EC80 forskolin. […] Finally assay vehicle concentration was 1%. After sample incubation assay signal was generated through incubation with 20 μL cAMP XS+ED/CL lysis cocktail for one hour followed by incubation with 20 μL cAMP XS+EA reagent for three hours at room temperature. Microplates were read following signal generation with a PerkinElmer Envision Instrument for chemiluminescent signal detection. Compound activity was analyzed using CBIS data analysis suite. For Gi agonist mode, percentage activity is calculated using the following formula: % Activity=100%×(1−(mean RLU of test sample−mean RLU of MAX control)/(mean RLU of vehicle control−mean RLU of MAX control)). […] Each measurement was done in duplicate.
Data set [4] deals with T1, human α2AAR. Description: β-arrestin-2 recruitment, BRET biosensor assay in HEK293T cells. The note with it: HEK-293T. (Recruitment of arrestin is a read-out of receptor activation apart from second messengers.)
Description: Bioluminescense resonance energy transfer. G protein mediated activation of human α2AAR and D2long was monitored with Gαi1-RLucII (71, 72) together with Gβ1 and Gγ1-GFP10. Arrestin recruitment was performed by enhanced bystander BRET using CAAX-rGFP and β-arrestin-2-RLucII as biosensors (all biosensors are provided from M. Bouvier, Université de Montréal, Canada) (71, 73) in the presence of GRK2 as described (66, 74). In brief, HEK293T cells were transfected with a total amount of 3.3 μg DNA per 10^6 cells using linear polyethyleneimine (PEI, Polysciences, 3:1 PEI:DNA ratio) and transferred into 96-well half-area plates (Greiner, Frickenhausen, Germany) at a density of 10,000 cells per well and incubated for 48 hrs. Medium was exchanged with PBS (Hank's balanced salt solution) and cells were stimulated with ligands at 37° C. for 10 min for Gαi stimulation or arrestin recruitment, respectively.
Data set [5] concerns the target T2, ALPHA-2A ADRENERGIC RECEPTOR (Homo sapiens (Human), UniProt P08913). Description: Gi recruitment (G protein). It counts as cell-based. The following applies: for functional classification (agonist / weak agonist) / EC50 / Emax: Gi recruitment; for functional classification (agonist / weak agonist): Table 6, result in words.
For another data set, the system named is mice. Put plainly: Rotarod motor test (motor impairment and sedation). It counts as in vivo. The following applies: equi-analgesic doses (DEX: higher doses).
The target in data set [6] is T2, ALPHA-2A ADRENERGIC RECEPTOR
Description: Arrestin recruitment. The data set is classed as cell-based. The following applies: for Emax: Tables 7-9.

The target of the next data set is α2AAR-Y431^7.43A/F (Homo sapiens, UniProt P08913, Y431A). Description: Gi activation (BRET) at α2AAR Y431^7.43 mutants. It counts as cell-based. On the procedure: Investigating the sensitivity of selected ligands to the receptor mutants α2AAR-D128^3.32A, α2AAR-D128^3.32T, α2AAR-D128^3.32L, α2AAR-S215^5.42A, α2AAR-Y409^6.55A, α2AAR-Y409^6.55T, α2AAR-Y409^6.55F, α2AAR-F427^7.39F, α2AAR-Y431^7.43A, and α2AAR-Y431^7.43F was determined by monitored G protein stimulation as described above transfecting the appropriate receptor together with Gαi1-RLucII and Gβ1/Gγ1-GFP10. […] Three to ten experiments were done in duplicate.
The sensitivity of selected ligands to the receptor mutants α2AAR-D128^3.32A, α2AAR-D128^3.32T, α2AAR-D128^3.32L, α2AAR-S215^5.42A, α2AAR-Y409^6.55A, α2AAR-Y409^6.55T, α2AAR-Y409^6.55F, α2AAR-F427^7.39F, α2AAR-Y431^7.43A, and α2AAR-Y431^7.43F was monitored by G protein activation as described above transfecting the appropriate receptor together with Gαi1-RLucII and Gβ1/Gγ2-GFP10. […] Similarly, the effect of the α2AAR-D128^3.32A, α2AAR-S215^5.42A, α2AAR-Y409^6.55A, α2AAR-Y409^6.55F, α2AAR-F427^7.39F, α2AAR-Y431^7.43A, and α2AAR-Y431^7.43F mutations on arrestin recruitment was evaluated as described above transfecting the appropriate receptor together with CAAX-rGFP, GRK2 and β-arrestin-2-RLucII. Data was analyzed as ligand induced changes in BRET compared to vehicle (deltaBRET). Three to seven experiments were done in duplicate.

Where [7] appears, read: Tables 7-9, read-out: G protein Emax (%).
[8] abbreviates: Tables 7-9, read-out: G protein EC50.

Consider 24 compounds from patent US20250032476A1, “ALPHA-2A ADRENERGIC RECEPTOR MODULATORS AND USES THEREOF” (The Regents of the University of California, priority 2021, published 2025).

Values joined by “and” are separate entries in the source; they are usually repeats but may differ in a detail not shown here. Equal entries are not always repeated. Where two headings read alike, the source gives them in different places.

T2 sequence (P08913 whole entry): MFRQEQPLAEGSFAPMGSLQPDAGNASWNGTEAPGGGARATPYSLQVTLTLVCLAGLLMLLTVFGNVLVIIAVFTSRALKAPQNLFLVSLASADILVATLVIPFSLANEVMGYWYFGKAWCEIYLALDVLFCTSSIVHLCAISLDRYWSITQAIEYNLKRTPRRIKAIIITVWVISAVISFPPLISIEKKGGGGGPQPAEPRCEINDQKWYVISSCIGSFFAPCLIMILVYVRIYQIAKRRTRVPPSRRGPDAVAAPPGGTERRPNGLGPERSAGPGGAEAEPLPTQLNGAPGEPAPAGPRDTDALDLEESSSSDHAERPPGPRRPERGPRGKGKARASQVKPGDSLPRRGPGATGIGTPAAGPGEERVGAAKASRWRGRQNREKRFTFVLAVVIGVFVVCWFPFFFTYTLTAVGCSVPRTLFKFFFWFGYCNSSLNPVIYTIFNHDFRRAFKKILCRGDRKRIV
T1 sequence (P08913 whole entry): as above

Turning to `c1ccc(Nc2cncc3ccccc23)cc1`, the Emax on human α2AAR [1] (read-out: Gi Emax @ 0.1 mM) came to 57%. Besides, at human α2AAR [2], the Ki is more than 10 µM.
With `Nc1ccc(Nc2cncc3ccccc23)cc1`, on human α2AAR [1] (read-out: Gi Emax ± SEM), the Emax was less than 5%. Further, the Ki on human α2AAR [2] turned out to be 4.6 ± 2.1 µM.
For `c1ccc2c(Oc3ccncc3)cccc2c1`, on human α2AAR [1] (read-out: Gi Emax @ 0.1 mM), the Emax was 43%. The Ki at human α2AAR [2] was determined as 1.8 ± 0.73 µM.
With `c1ccc2c(Nc3ccncc3)ncnc2c1`, the Emax at human α2AAR [1] (read-out: Gi Emax ± SEM) was less than 5%. Also, the Ki on human α2AAR [2] was determined as 6.6 ± 1.8 µM.
With `Brc1c(NC2=NCCN2)ccc2nccnc12` [Brimonidine, brimonidine, reference compound], on human α2AAR [3], the Emax worked out at 107 ± 7%.
Turning to `Clc1cccc(Cl)c1N=C1NCCN1` [CLON, clonidine, reference compound], the Emax on human α2AAR [1] (read-out: Gαi Emax) is 115 ± 4%; on human α2AAR [4] (read-out: β-arrestin-2 Emax), 41 ± 3%.
For `Clc1ncc2ccccc2c1Nc1ccncc1` [Compound 1718, 3-chloro-N-(pyridin-4-yl)isoquinolin-4-amine], the EC50 on human α2AAR [1] was determined as 0.014 µM; in data set [5] (Table 6, read-out: EC50) it was 0.008 µM. Also, the Emax is 47% on human α2AAR [1] (read-out: Gi Emax ± SEM); 45% in data set [5] (Table 6, read-out: Emax (%)); less than 5% on human α2AAR [4] (read-out: β-Arr-2 Emax). Also, the “functional classification (agonist / weak agonist)” value in data set [5] is reported as “agonist”. The Ki on human α2AAR [2] turned out to be 0.022 ± 0.0067 µM.
As for `c1cc(Nc2ccncc2)c2sccc2c1` [Compound 4914], the EC50 on human α2AAR [1] was 0.0091 µM; in data set [5] (Table 6, read-out: EC50), 0.0068 µM. In addition, the Emax on human α2AAR [1] (read-out: Gi Emax ± SEM) is 77%; in data set [5] (Table 6, read-out: Emax (%)), 76%; on human α2AAR [4] (read-out: β-Arr-2 Emax), less than 5%. The Ki on human α2AAR [2] was 0.0072 ± 0.001 µM.
For the compound `Cc1cccc([C@H](C)c2cnc[nH]2)c1C` [DEX, dexmedetomidine, reference compound], the values for the Emax on human α2AAR [1] (read-out: Gαi Emax), at human α2AAR [4] (read-out: β-arrestin-2 Emax) and on human α2AAR [3] were 105 ± 4%, 60 ± 3% and 76 ± 3%, respectively. For the same compound, the “Motor impairment / sedation in rotarod test” value in the data set on mice is “significant impairment and complete sedation at higher doses”.
Take `COc1ccc2cccc(Nc3ccncc3)c2c1` [PS71]: the “Fold reduced Gi activity compared to ‘5879” value on human α2AAR [1] is 15 fold and 16 fold. In addition, the EC50 at human α2AAR [1] was 0.1 µM; in data set [5] (Table 6, read-out: EC50), 0.089 µM. Further, the Emax was 85% on human α2AAR [1] (read-out: Gi Emax ± SEM) and less than 5% at human α2AAR [4] (read-out: β-Arr-2 Emax). Also, the “functional classification (agonist / weak agonist)” value in data set [5] was “agonist”. Further, at human α2AAR [2], the Ki was 0.24 ± 0.12 µM.
Take `O=C1CCc2c(cccc2Nc2ccncc2)N1` [PS84]: the EC50 at human α2AAR [1] is 0.84 µM; in data set [5] (Table 6, read-out: EC50), 0.45 µM. For the same compound, the Emax on human α2AAR [1] (read-out: Gi Emax ± SEM) is 37%. In addition, the “functional classification (agonist / weak agonist)” value in data set [5] is “agonist”. Further, on human α2AAR [2], the Ki amounted to 0.5 ± 0.087 µM.
The corresponding values for `O=C1NCCc2c(Nc3ccncc3)cccc21` [PS86] are 3.4 µM, 3.2 µM, 91%, “agonist” and 1.2 ± 0.56 µM.
As to `COc1cc2[nH]ncc2cc1-c1ccc(N)nc1` [TP79, 5-(6-Methoxy-1H-indazol-5-yl)pyridin-2-amine], the Emax was less than 6% in data set [5] (setting [7]) and less than 10% in data set [6].
In the case of `O=C1CCc2ccc(C3=CCCNC3)cc21` [TP81], the EC50 in data set [5] (setting [8]) came to 3 µM. For the same compound, the Emax in data set [5] (setting [7]) was 79%; in data set [6] it was less than 10%.
The corresponding values for `Nc1ccc(-c2ccc3[nH]ncc3c2F)cn1` [TP84, 5-(4-Fluoro-1H-indazol-5-yl)pyridin-2-amine] are 1.1 µM, 49% and less than 10%.
For the compound `Nc1ccc(-c2ccc3[nH]ncc3c2Cl)cn1` [TP85, 5-(4-Chloro-1H-indazol-5-yl)pyridin-2-amine], the EC50 in data set [5] (setting [8]) came out at 0.22 µM. Further, in data set [5] (setting [7]), the Emax stood at 81%. In addition, the “Arrestin effect at 100 μM” value in data set [6] (at 100 μM) is 34% at 100 μM.
Turning to `Nc1ccc(-c2cc(C(F)(F)F)c3[nH]ncc3c2)cn1` [TP87, 5-(7-(Trifluoromethyl)-1H-indazol-5-yl)pyridin-2-amine], in data set [5], the “G protein effect at 100 μM” value came out at 27% at 100 μM. The same compound returned an Emax in data set [6] of less than 10%.
Consider `O=C1CCc2cc(C3=CCCNC3)ccc21` [TP90], for which the Emax in data set [5] (setting [7]) and in data set [6] was less than 5% each time.
As to `NC1CCc2ccc(C3=CCCNC3)cc21` (stereo not drawn) [TP92], the “G protein effect at 100 μM” value in data set [5] is 18% at 100 μM. The same compound showed an Emax in data set [6] of less than 5%.
In the case of `Nc1ccnc(Cc2ccc(F)cc2)c1` [TP94, 2-(4-Fluorobenzyl)pyridin-4-amine], the EC50 in data set [5] (setting [8]) amounted to 5 µM. Also, the Emax is 19% in data set [5] (setting [7]) and less than 10% in data set [6].
With `CC1=CCc2cc(C3=CCCNC3)ccc21` [TP97, 5-(3-Methyl-1H-inden-6-yl)-1,2,3,6-tetrahydropyridine], the Emax in data set [5] (setting [7]) was less than 10%; in data set [6], less than 5%.
With `C=C(c1ccc(C(F)(F)F)cc1)c1cc(N)ccn1` [TP101, 2-(1-(4-(Trifluoromethyl)phenyl)vinyl)pyridin-4-amine], the Emax in data set [5] (setting [7]) and in data set [6] was less than 5% throughout.
Regarding `C=C1CCc2cc(C3=CCCNC3)ccc21` [TP105, 5-(1-Methylene-2,3-dihydro-1H-inden-5-yl)-1,2,3,6-tetrahydropyridine], the Emax in data set [5] (setting [7]) and in data set [6] was less than 5% throughout.
For the compound `NC[C@H](O)c1ccc(O)c(O)c1` [norepinephrine], the “Gi signaling at Y431^7.43A” value at α2AAR-Y431^7.43A/F is listed as “essentially eliminated”.

As usually defined, the Ki is a measure of affinity in units of concentration, obtained from inhibition or displacement. By EC50 is commonly meant the concentration that produces a half-maximal response.
